In patent US6610681B1, “Neurotherapeutic clavulanate composition and method” (Revaax Pharmaceuticals, LLC, priority 1999, dated 2003):
Read-outs that look alike come from different tables or passages of the source.

Columns and labels:
[1] = system: male Wistar rats; assay: general motor activity in an open field; type: in vivo, rat; conditions: 1.0 μg/kg IP, after the plus-maze test, vs vehicle
Experimental: Immediately after each of the plus-maze tests reported above in Section II, animals were tested for general motor activity in an “open field.” Animals were placed into a large clean Plexiglas cage (48×32×40 cm) devoid of bedding. This open field was delineated into equal quadrants by tape on the underside of the cage. Animals were scored for motor activity by counting the number of quadrants traversed in 1 min.

[2] = system: male Syrian golden hamsters; assay: golden hamster seed finding model of anxiety; type: in vivo, Mesocricetus auratus
From the text: Clavulanic acid (CLAV) is structurally similar to the beta-lactam antibiotics. A most robust and simple bioassay for screening beta-lactams for CNS activity is the golden hamster seed finding model of anxiety. Briefly, hamsters are deprived of food overnight. The following day they are exposed to the additional stress of being taken from their home cage and placed in a novel environment for a few minutes. This manipulation stimulates the release of the stress hormone cortisol (FIG. 13). During their absence from the home cage, sunflower seeds are hidden under the bedding in one of the corners. When returned to the home cage, hamsters routinely scramble along the walls for 1-2 min before settling down, locating and eating the seeds. However, animals treated with the benzodiazepine anxiolytic chlordiazepoxide find seeds in less than 10 sec.
Male, Syrian golden hamsters (Mesocricetus auratus) (120-130 g) obtained from Harlan Sprague-Dawley Laboratories (Indianapolis, Ind.) were housed individually in Plexiglas cages (24 cm×24 cm×20 cm), maintained on a reverse light:dark cycle (14L: 10D; lights on at 19:00 hr) and provided food and water ad libitum. A range of concentrations of CLAV (saline vehicle, 0.1, 1.0, 10, 100 1,000 ng/kg) were tested in six groups of hamsters (4-8/group)(FIG. 1). All tests were conducted during the dark phase of the circadian cycle under dim red illumination. Prior to testing all animals were fasted for 20-24 hrs. Ninety min after intraperitoneal (IP) injection of drug, animals were taken from their home cage and placed into a holding cage for 2 min. During their absence, six sunflower seeds were buried under the bedding in one corner of their home cage. Animals were placed back into their home cage randomly facing any one of the empty corners and timed for their latency to find the seeds in a five min observation period. Latency times were analyzed with a one-way ANOVA followed by Scheffe's post hoc tests. Assumption of equal variances was tested (Hartley's F-max=2.1 p>0.05)
It was hypothesized that CLAV functioned as an anxiolytic in the seed finding assay by blocking NAALADase activity in the brain. If this notion were true then it would be predicted that drugs known to block NAALADase should also enhance seed finding. To this end, animals were treated with N-acetyl-beta-aspartyl-glutamic acid (beta-NAAG), a competitive inhibitor of NAALADase (Serval et al., 1992) and tested in the seed finding model of anxiety. The study was similar to that outlined in Section I with one notable exception. […] Beta-NAAG (FW 304) was given in a dose of 3 ng in a volume of 1 μl saline ICV. The average adult hamster brain weights ca. 1.2 g of which 22% is extracellular fluid. The estimated beta-NAAG concentration was 11 ng/ml or 36 nM.
Two groups of six animals each were fasted overnight as previously described and tested the following day. One group was treated with beta-NAAG and the other saline vehicle and one hr later timed for latency to find the hidden sunflower seeds. A Student t-test for unpaired data was used for statistical comparisons.

[3] = in vivo, cited from earlier work
[4] = system: neurogenic NAALADase; assay: animal tests of neuroactivity, effective dose; type: in vivo, hamsters and other test species
[5] = system: gram negative beta-lactamase enzymes; conditions: cited from earlier work
[6] = system: rats; assay: Morris water maze, spatial navigation; type: in vivo, rat
From the text: The Morris water maze was developed to test spatial memory (Morris, 1984). The pool is divided into quadrants usually designated North, South, East and West. The water in the pool is made opaque with milk powder. Hidden just beneath the surface in one of the quadrants is a platform that serves as a escape route for rodents placed into the pool. An animal is placed some where in the pool from a variety of different start points and is timed for latency to find the platform, percent time spent in each quadrant, distance traveled and swimming speed. The animals have no visual or spatial cues in the pool and must rely on extra-maze cues, i.e., objects set up outside the pool that can be seen by the swimming animal. Through a series of trials a rat develops “place learning” or knowledge about the position of the platform based upon the extra-maze cues. The platform can be moved to a different quadrant each day combining spatial memory with working memory. This paradigm involves extinction of the prior memory and resolution of a new spatial problem.
The water maze consisted of a black plastic circular pool ca. 150 cm in diameter and 54 cm in height filled to a level of 35 cm with water made opaque with powdered milk. The pool was divided into four quadrants with a platform 10 cm in diameter submerged 2 cm below the surface in the northwest quadrant. The water was maintained at a temperature of 25° C. Around the pool were several visual cues. Above the pool was a video camera for tracking the movement of the experimental animal. The data collection was completely automated using the software developed by HVS Image (Hampton, UK). Before testing, rats were familiarized with the pool and platform placed in the northwest quadrant. Each day for 4 consecutive days, animals were placed into pool at random sites and given two min to find the platform. […] Following these familiarization trials, animals were tested for spatial navigation. The first day of testing began with the platform in the expected northwest quadrant. All behavior was videotaped for a two min observation period. After testing the animal were dried off and placed back into their home cage. On each subsequent day the platform was moved to a new quadrant and the rat started at different positions. The rat was always placed into the pool facing the sidewall. The start positions relative to the platform were different for each of the four trials; however, the platform was always in the same relative position in each quadrant. It was positioned 20 cm in from the side of the pool and in the left corner from the center facing out. The latency to find the hidden platform, path length, swim rate, and quadrant times between CLAV and vehicle treated animals were compared with a two-way, repeated measures ANOVA followed by Bonferroni post hoc tests.

What does the source list for `O=C(O)[C@H]1/C(=C/CO)O[C@@H]2CC(=O)N21` [CLAV, clavulanic acid]?
open field activity (quadrants traversed in 1 min) [1]: no significant differences; latency to find the sunflower seeds vs vehicle ([2]; 1 ng/kg IP, 90 min): not significantly different from vehicle control; estimated concentration in extracellular water at the 10 ng/kg dose ([2]; 1.25 ng in 27.5 ml): 0.045 ng/ml and about 200 pM; effective dose (maximal efficacy) in the seed finding test ([2]; IP): 0.01 µg/kg; latency to find the sunflower seeds ([2]; doses of 10 ng and above, IP, 90 min, vehicle 104 sec): less than 8.0 sec; estimated concentration in the brain at the 10 ng/kg dose ([2]; from CSF/plasma ratio 0.25): around 50 pM; oral activity and stability ([3]; po): orally active and stable; CSF/plasma ratio [3]: 0.25; elimination half-life [3]: just under two hours; passage of the blood-brain barrier [3]: readily passes the blood-brain barrier; CSF/plasma ratio ([3]; listed as Clavulanic acid): around 0.25; dose effective to inhibit neurogenic NAALADase ([4]; i.p.): less than 1 microgram per kilogram of body weight; dose showing activity similar to moxalactam (aggression, spatial learning, anxiolytic) ([4]; i.p.): less than 1 microgram/kg; dose exhibiting dose responsive neuroactivity ([4]; levels as low as): 0.01 µg/kg; inhibition of gram negative beta-lactamase enzymes [5]: 15 to 34 nM; path length to find the platform ([6]; 1.0 μg/kg, Day 1, vs vehicle): traveled a much shorter distance; percentage of time spent in each quadrant vs vehicle ([6]; 1.0 μg/kg, any quadrant on any day): no significant difference between treatments; latency to find the platform, main effect ([6]; 1.0 μg/kg, one hr before testing, 4 days): no main effect for drug treatment; latency to find the platform on Days 1 and 4 ([6]; 1.0 μg/kg, trend towards significance): shorter latencies; learning and memory (summary) ([6]; spatial and cue navigation): do not show any loss in learning and memory

Which “change of seed finding time” value ([2]; dose not given) does the source give for `CO[C@@]1(NC(=O)C(C(=O)O)c2ccc(O)cc2)C(=O)N2C(C(=O)O)=C(CSc3nnnn3C)CO[C@@H]21` (stereo partly drawn) [Moxalactam, 7-β-[2-carboxy-2-(4-hydroxyphenyl)acetamido]-7α-methoxy-3-[[(1-methyl-1H-tetrazol-5-yl)thio]methyl]-1-oxa-1-dethia-3-cephem-4-carboxylic acid] here?
The value was “reduction in seed finding time from minutes to seconds”.

And the “dose exhibiting significant dose responsive neuroactivity” value ([4]; administered parenterally)?
The value was “about 50 μg/kg of body weight”.

What about the threshold effective dose ([4]; administered parenterally) of the same compound?
Its threshold effective dose is “about 50 βg/kg of body weight”.

And the “effective minimum neurogenic protease inhibiting concentration in the brain” value ([4]; based on animal test data and known brain distribution)?
Its value is “about 30 nM”.

And the minimum effective dose ([4]; parenterally, hamsters and other test species)?
Its minimum effective dose is “about 50 micrograms per kg of body weight”.

What about the spatial learning ([6]; i.p. at 50 micrograms/kg, rats) of the same compound?
Its spatial learning is “enhances spatial learning in rats”.
